Experimental data reported in patent US8506997B2, “Pharmaceutical compound containing silymarin and carbopol, its manufacturing process and its use as a regenerator of the pancreatic tissue and cells of endogenous secretion damaged by diabetes mellitus” (Universidad Autonoma Metropolitana, priority 2002, dated 2013).

Key:
Assay type in all cases: in vivo
[1] = test system: catalase; experiment: Activity of pancreatic antioxidant enzymes: catalase; settings: pancreas; Alloxan (20 days after its administration)
Method: (§1) A determination was made of the pancreatic activity of the antioxidant enzymes: superoxide dismutase, glutathione peroxidase and catalase. To do such determination, the pancreas was weighed, it was homogenized with a phosphate buffer 50 mM, it was centrifuged at 3000 rpm, and the supernatant was separated. The activities of the aforementioned enzymes was determined in this.
Catalase.—This quantification was carried out by the Aebi method (1995). This enzyme catalyzes the breakdown of H2O2 and the decomposition velocity of the oxygenated water is measured spectrophotometrically at 240 nm.

[2] = test system: islets of Langerhans; experiment: Immunohistochemical analysis for insulin and glucagon in the islets of Langerhans by confocal microscopy; settings: treatment with Alloxan only (FIG. 1)
Method: (§2) The treatment of the Silymarin and Carbopol combined with Alloxan was done in two ways. In the first case, a dose of 200 mg/Kg of the Silymarin and Carbopol compound was administered orally at 6, 24 and 48 hours (two days) after the first dose. In the second case, in addition to the dose mentioned in the first case, the administration was prolonged every 24 hours after the first dose for five more days (seven days). In both cases, the dose of Alloxan was 150 mg/Kg, which was administered subcutaneously one hour after the first dose of the Silymarin and Carbopol compound.
This analysis is carried out on sections of pancreatic tissue (corresponding to the head of the pancreas). Once the sections have been obtained (described in example 3) they are placed on a slide and the tissue is then deparaffinated and rehydrated. It is begun in pure xylol, with two changes of 10 minutes each. The samples are then passed to a mixture of ethanol-xylol for 10 minutes and afterward to alcohols of different percentages: 100, 90, 80 and 70% for five minutes each. […] At the end of this time, they are flushed with PBS and incubated in a mixture of secondary antibodies coupled with fluorochromes, fluorescein and rhodamine, for one hour at ambient temperature and they are then mounted in a specific medium to preserve the fluorescence. The samples are analyzed by confocal microscopy. […]

[3] = test system: serum glucose; experiment: Determination of serum glucose (ortho-toluidine method) in Alloxan-induced Diabetes Mellitus; settings: 20 days after Alloxan, before starting the treatment with the Silymarin and Carbopol compound
Method: as §2
The determination of blood glucose was carried out by the Baner method. This consisted in taking 50 μl of serum to which 3.0 ml of ortho-toluidine reagent were added which reacts with aldohexoses and forms […] and a Schiff base, the green color developed has a maximum absorption at 620 nm and is proportional to the quantity of glucose present.
In the case of the combined administration of the Silymarin and Carbopol compound with Alloxan, the determination of serum glucose was done before the administration of the drugs and at 3, 5, 15 and 30 days after the treatment. […]

[4] = test system: glutathione peroxidase; experiment: Activity of pancreatic antioxidant enzymes: glutathione peroxidase; settings: pancreas; Alloxan (20 days after its administration)
Method: as §1
Glutathione peroxidase.—This quantification was done by the method of Prasad et al. (1992). This enzyme catalyzes the breakdown of H2O2 by the NADPH. Its activity is measured by the velocity of absorbance change during the conversion of NADPH to NADP^+ and this may be spectrophotometrically registered at […].

[5] = test system: pancreatic tissue; experiment: Histopathological analysis of the pancreatic tissue (HE staining); settings: treatment with Alloxan only
Method: as §2
This analysis was done in transversal fragments of pancreas approximately 0.7 cm long corresponding to the head of the organ. Subsequently, by the paraffin embedding technique, 5 μm sections where then obtained, which were stained with the dyes hematoxylin and eosin (HE). This technique consists in: 1) dehydration of the tissue, which is done by passing the tissue through different concentration of alcohol (from 25 to 100%) and then to an alcohol-toluene, toluene-paraffin and paraffin mixture. Once the tissues are dehydrated, blocks are formed with paraffin. 2) Sectioning of the tissue. This is done in a microtome, which is adjusted to the right section thickness of 4 to 6 μm and is placed in a slide. 3) Staining of the sections. This was done with the dyes hematoxylin and eosin. […]

[6] = test system: superoxide dismutase; experiment: Activity of pancreatic antioxidant enzymes: superoxide dismutase; settings: pancreas; Alloxan (20 days after its administration)
Method: as §1
Superoxide dismutase.—This quantification was done by the method of Prasad et al. (1992). Superoxide ions are formed by xanthine and xanthine oxidase. These ions react with the tetrazolium blue and they form a colour compound that can be spectrophotometrically quantified at 560 nm. A unit of superoxide dismutase can inhibit the formation of this compound by 50%.

SMILES: O=C1NC(=O)C(=O)C(=O)N1 [Alloxan]
- Enzymatic activity Catalase [1]: 0.01 ± 0.002 k/sec/mg of protein
- pancreatic islet, insulin and glucagon immunostaining [2]: destruction occurred of the pancreatic islet
- serum glucose concentration above the normal value [3]: approximately 400%
- Enzymatic activity Glutathione Peroxidase [4]: 0.016 ± .002 μM NADPH/min/mg prot
- histopathology of the pancreatic tissue [5]: cellular disorganization with loss of the islets of Langerhans
- Enzymatic activity Superoxide Dismutase [6]: 4.3 ± 0.02 U/mg protein.
